The text below walks through data of patent US20230126310A1 (priority 2020, published 2023).

Where a name gives a salt, the structure may show the parent alone. Read-outs that look alike come from different tables or passages of the source. Numbered stars: 1 amine (or outer) side, 2 acyl side, 3 side chain; on linkers, the order of the positions; unused ones are H or OH. Bridge positions count the residues as written; N and C are the ends. Square brackets hold non-standard residues; d marks the D form. Peptide text beside a SMILES is read from it. I, II: the chains in the order shown. Actinocin(9to1) = Cc1c2oc3c(C)ccc(C(=O)[*:1])c3nc-2c(C(=O)[*:2])c(N)c1=O; NMeV = CN[C@H](C(=O)O)C(C)C; Sar = CNCC(=O)O

This test relates to SARS-CoV-2. The test is described as follows: microbe, parasite or virus in culture. The following applies: Severe acute respiratory syndrome coronavirus 2, Caco-2, 48 h; for inhibition at 10 µM: read-out: % Inh. (% Inhibition of SARS-CoV-2).

One may read the inhibition as the relative decrease from the control value, in per cent. Turning to `Clc1ccc(C(Cn2ccnc2)OCc2csc3c(Cl)cccc23)c(Cl)c1` (stereo not drawn) [Sertaconazole nitrate], the inhibition at 10 µM is 88.9%.
For `Nc1ccc2cc3ccc(N)cc3nc2c1` [PROFLAVINE HEMISULFATE], the IC50 came to 26.7 µM and the inhibition at 10 µM was found to be 95.8%. Besides, the IC50 (read-out: pIC50 (converted)) was 26.9 µM.
With `O=C(CC(c1ccccc1)c1ccccc1)N1CCN(C(c2ccccc2)c2ccccc2)CC1` [NP118809], the inhibition at 10 µM was determined as 60.8%.
The same measure, in the same setting: next, `Cc1cc(N)c2ccccc2[n+]1CCCCCCCCCC[n+]1c(C)cc(N)c2ccccc21` [DEQUALINIUM CHLORIDE]: 65.6%; `Cc1ccc(Oc2ccccc2-c2csc(N=C3NCCCN3)n2)c(C)c1` [Abafungin]: 92.9%; `O=C(O)c1ccc(OCCn2ccnc2)cc1` [Dazoxiben]: 56%.
In the case of `COC(=O)C1=C(C)NC(C)=C(C(=O)O[C@H]2CCN(Cc3ccccc3)C2)[C@H]1c1cccc([N+](=O)[O-])c1` [Barnidipine HCl], the IC50 came to 24.3 µM and the inhibition at 10 µM was found to be 83.5%. The IC50 (read-out: pIC50 (converted)) is 24.5 µM.
Consider `COc1cc(N2CCC(N3CCN(C)CC3)CC2)ccc1Nc1ncnc(Nc2ccccc2S(=O)(=O)C(C)C)n1` [ASP3026], for which the inhibition at 10 µM worked out at 62.2%.
The same measure, in the same setting: next, `NCCNC(=O)c1ccc(Cl)cn1` [lazabemide]: 67.9%; `Cn1c(NC[C@@H](N)Cc2ccccc2)nc(-c2ccncc2)c(-c2ccc3ccccc3c2)c1=O` [AMG-548]: 89%.
Still for that read-out and setting: next, `CN1CCC(Nc2ncc3ncnc(Nc4ccc(F)c(Cl)c4)c3n2)CC1` [BIBX-1382]: 79.3%.
Still for that read-out and setting: then `CC(=O)OCC1=C(C(=O)O)N2C(=O)[C@@H](NC(=O)Cc3cccs3)[C@H]2SC1` [Cephalothin], with 53.7%; and `COc1ccc(CCCOC(Cn2ccnc2)c2ccc(OC)cc2)cc1` (stereo not drawn) [SKF-96365], with 70.3%.
`Clc1ccc(C(Cn2ccnc2)OCc2ccc(Sc3ccccc3)cc2)c(Cl)c1` (stereo not drawn) [Fenticonazole nitrate]: the inhibition at 10 µM stood at 105%.
Still for that read-out and setting: next, `CC(C)[C@]12O[C@H]1[C@@H]1O[C@]13[C@]1(O[C@H]1C[C@H]1C4=C(CC[C@@]13C)C(=O)OC4)[C@@H]2O` [Triptolide]: 90.7%.
For `N#CC(c1ccnc(OCc2ccc(CN3CCOCC3)cc2)n1)c1nc2ccccc2s1` (stereo not drawn) [Bentamapimod], the IC50 amounted to 5.12 µM and the inhibition at 10 µM amounted to 78.4%. Besides, for the setting “read-out: pIC50 (converted)”, the IC50 was 5.13 µM.
`CCCn1c(=O)c2[nH]c(-c3ccccc3)nc2n(CCC)c1=O` [1,3-dipropyl-8-phenylxanthine]: the inhibition at 10 µM came out at 57.2%.
Still for that read-out and setting: next, `NC(N)=NCc1cccc(I)c1` [iobenguane]: 86.9%; `c1ccc2c(c1)[I+]c1ccccc1-2` [diphenyleneiodonium]: 55.5%.
On the same count and under the same terms, next, `Nc1cc(C(F)(F)F)c(-c2nc(N3CCOCC3)nc(N3CCOCC3)n2)cn1` [Bimiralisib]: 97.2%.
Same read-out and setting: next, `CCNC(=O)Nc1ccc(-c2nc3c(c(N4CCOC[C@@H]4C)n2)CCN(C2COC2)C3)cc1` [GDC-0349]: 83.8%; `O=C(Nc1cc(Cl)cc(Cl)c1O)c1c(O)c(Cl)cc(Cl)c1Cl` [OXYCLOZANIDE]: 94.4%; `CN1CCc2cc3c(cc2C1O)OCO3` (stereo not drawn) [HYDRASTININE HYDROCHLORIDE]: 56.3%.
As for `CCn1c(=O)c(-c2cc[nH]n2)cc2c(C)nc(N)nc21` [Voxtalisib], the inhibition at 10 µM stood at 84.3%.
Same read-out and setting: next, `C[S+]([O-])CCCCN=C=S` (stereo not drawn) [sulforaphane]: 94.2%; `CCCCN(CC)c1nc(C)nc2c1c(C)c(C)n2-c1c(C)cc(C)cc1C` [antalarmin]: 59%; `COc1cc2nc(N3CCN(C(=O)c4ccco4)CC3)nc(N)c2cc1OC` [PRAZOSIN HYDROCHLORIDE]: 58%.
As for `C[C@]12CC[C@H](O)C[C@H]1CC[C@@H]1[C@@H]2CC[C@]2(C)[C@@H](C3=CC(=O)OC3)CC[C@]12O` [digitoxigenin], the inhibition at 10 µM came out at 60%.
The same measure, in the same setting: then `C=CC(=O)Nc1cccc(Nc2nc(Nc3ccc(N4CCN(C(C)=O)CC4)cc3OC)ncc2C(F)(F)F)c1` [Rociletinib (CO-1686, AVL-301), Rociletinib], with 84.9%; and `Cc1ccnc2c1CCCC2C(N)=S` (stereo not drawn) [isotiquimide], with 50%; and `CCN(CC)Cc1cc(Nc2ccnc3cc(Cl)ccc23)ccc1O` [AMODIAQUINE DIHYDROCHLORIDE], with 78.8%.
As for `Nc1nc(Cl)nc2c1ncn2[C@@H]1O[C@H](CO)[C@@H](O)[C@H]1O` [2-chloroadenosine], the inhibition at 10 µM is 72.5%.
Same read-out and setting: next, `CS[C@H]1SC[C@H]2C(=O)N(C)[C@@H](C(C)C)C(=O)OC[C@@H](NC(=O)c3cnc4ccccc4n3)C(=O)N[C@@H](C)C(=O)N(C)[C@@H]1C(=O)N(C)[C@@H](C(C)C)C(=O)OC[C@@H](NC(=O)c1cnc3ccccc3n1)C(=O)N[C@@H](C)C(=O)N2C` [Echinomycin]: 77.5%; `Nc1ccccc1C(=O)O` [anthranilic-acid]: 50%.
On the same count and under the same terms, next, `C[C@H]1O[C@@H](O[C@H]2[C@@H](O)C[C@H](O[C@H]3[C@@H](O)C[C@H](O[C@H]4CC[C@@]5(C)[C@H](CC[C@@H]6[C@@H]5C[C@@H](O)[C@]5(C)[C@@H](C7=CC(=O)OC7)CC[C@]65O)C4)O[C@@H]3C)O[C@@H]2C)C[C@H](O)[C@@H]1O` [DIGOXIN]: 70.6%; `CCC[C@H](Nc1nc(-c2ccc(NC(=O)NCC)c(OC)c2)ncc1C)c1cccnc1` [CYT997]: 58.6%.
The same measure, in the same setting: then `O=C(Cn1ccnc1[N+](=O)[O-])NCCO` [etanidazole], with 57.3%; and `Cc1nc(Nc2ncc(C(=O)Nc3c(C)cccc3Cl)s2)cc(N2CCN(CCO)CC2)n1` [Dasatinib], with 52.7%; and `CCCCCCCCCCCCCCCC[N+](C)(C)CCN(Cc1ccc(OC)cc1)c1ncccn1` [thonzonium bromide], with 76.4%.
In the case of `CCCCNc1cc(C(=O)O)cc(S(N)(=O)=O)c1Oc1ccccc1` [BUMETANIDE], the inhibition at 10 µM was 87.5%.
Same read-out and setting: next, `C[C@@H](c1nc(-c2ccc(C#N)cc2)cs1)[C@](O)(Cn1cncn1)c1cc(F)ccc1F` [Isavuconazole]: 92.8%.
On the same count and under the same terms, then `Nc1c2ccccc2nc2ccccc12` [AMINACRINE], with 64.1%.
The same measure, in the same setting: next, `c1ccc(-c2ccc(C(c3ccccc3)n3ccnc3)cc2)cc1` (stereo not drawn) [BIFONAZOLE]: 70.8%; `Clc1ccc(C(Cn2ccnc2)OCc2c(Cl)cccc2Cl)c(Cl)c1` (stereo not drawn) [Isoconazole nitrate (Travogen), Isoconazole nitrate]: 75.9%.
Turning to `O=C(Nc1ccc(Cl)cc1)Nc1ccc(Cl)c(Cl)c1` [Triclocarban], the inhibition at 10 µM was 97.2%.
The same measure, in the same setting: next, `COCC(=O)O[C@]1(CCN(C)CCCc2nc3ccccc3[nH]2)CCc2cc(F)ccc2[C@@H]1C(C)C` [mibefradil]: 52.4%.
Still for that read-out and setting: next, `COc1ccccc1N1CCN(CC(O)COc2cccc3ccccc23)CC1` (stereo not drawn) [NAFTOPIDIL]: 90.6%; `CN(C)CC[C@H](CSc1ccccc1)Nc1ccc(S(=O)(=O)NC(=O)c2ccc(N3CCN(Cc4ccccc4-c4ccc(Cl)cc4)CC3)cc2)cc1[N+](=O)[O-]` [ABT-737]: 63.1%; `CCOC(=O)Nc1cc2c(c(N)n1)N=C(c1ccccc1)[C@H](C)N2` [mivobulin]: 65%.
Turning to `COc1c(O[C@@H]2O[C@H](CO)[C@@H](O)[C@H](O)[C@H]2O)cc2c(c1OC)-c1ccc(SC)c(=O)cc1[C@@H](NC(C)=O)CC2` [thiocolchicoside], the inhibition at 10 µM came out at 54.2%.
Consider `COC[C@H](NC(=O)c1cnc(C)s1)C(=O)N[C@@H](COC)C(=O)N[C@@H](Cc1ccccc1)C(=O)[C@@]1(C)CO1` [Oprozomib (ONX 0912), Oprozomib], for which the inhibition at 10 µM came to 52.7%.
Still for that read-out and setting: next, `O=C(O)CCCO` [SODIUM OXYBATE]: 57.3%.
The same measure, in the same setting: next, `COc1ccc(NC(=O)c2ccc(-c3ccc(-c4noc(C)n4)cc3C)cc2)cc1N1CCN(C)CC1` [GR-127935]: 53.7%.
Same read-out and setting: then `N[C@H](C(=O)O)c1ccc(O)cc1` [oxfenicine], with 50.7%; and `CC(O)COC[C@H]1O[C@@H]2O[C@H]3[C@H](O)[C@@H](O)[C@@H](O[C@H]4[C@H](O)[C@@H](O)[C@@H](O[C@H]5[C@H](O)[C@@H](O)[C@@H](O[C@H]6[C@H](O)[C@@H](O)[C@@H](O[C@H]7[C@H](O)[C@@H](O)[C@@H](O[C@H]8[C@H](O)[C@@H](O)[C@@H](O[C@H]1[C@H](O)[C@H]2O)O[C@@H]8COCC(C)O)O[C@@H]7COCC(C)O)O[C@@H]6COCC(C)O)O[C@@H]5COCC(C)O)O[C@@H]4COCC(C)O)O[C@@H]3COCC(C)O` (stereo partly drawn) [hydroxypropyl-beta-cyclodextrin], with 56.5%.
Turning to `O=c1[nH]c2ccccc2n1C1CCN(CCCC(c2ccc(F)cc2)c2ccc(F)cc2)CC1` [PIMOZIDE], the inhibition at 10 µM was 94%.
Same read-out and setting: next, `Cc1ccc(C(=O)N(CCCN)[C@@H](c2nc3cc(Cl)ccc3c(=O)n2Cc2ccccc2)C(C)C)cc1` [Ispinesib (SB-715992), Ispinesib]: 91.9%.
On to `CC(=O)NC(Cc1ccccc1)C(=O)O` (stereo not drawn) [AFALANINE], for which the inhibition at 10 µM came out at 62.1%.
On the same count and under the same terms, then `Cc1c2oc3c(C)ccc(C(=O)N[C@@H]4C(=O)N[C@H](C(C)C)C(=O)N5CCC[C@H]5C(=O)N(C)CC(=O)N(C)[C@@H](C(C)C)C(=O)O[C@@H]4C)c3nc-2c(C(=O)N[C@@H]2C(=O)N[C@H](C(C)C)C(=O)N3CCC[C@H]3C(=O)N(C)CC(=O)N(C)[C@@H](C(C)C)C(=O)O[C@@H]2C)c(N)c1=O` [DACTINOMYCIN] (I: T[dV]P[Sar][NMeV] / II: T[dV]P[Sar][NMeV]; ester I:1-I:C, II:1-II:C; linker I:N-II:N via Actinocin(9to1)), with 74.6%; and `C[C@]12CC[C@H](O)C[C@H]1CC[C@@H]1[C@@H]2C[C@@H](O)[C@]2(C)[C@@H](C3=CC(=O)OC3)CC[C@]12O` [Digoxigenin], with 66.8%.
